Laboratory results from US20260027068A1, “METHODS OF ADM[…]-KETAMINE” (Perception Neuroscience, Inc., priority 2022, published 2026).

Key:
[1] = tested on: subjects with TRD; test: Modified Observer's Assessment of Alertness/Sedation (MOAA/S)
Method: (§1) The Investigational Medicinal Product (IMP) R(−)-ketamine hydrochloride in sterile water for intravenous injection was investigated as an […] treatment of TRD. The International Union of Pure and Applied Chemistry (IUPAC) name is of the IMP is (2R)-2-(2-chlorophenyl)-2-(methylamino)cyclohexan-1-one. Subjects received the solution at either 30 mg or 60 mg dose, or a placebo. The IMP or placebo was administered on Day 1 as a single IV infusion via an electronic infusion pump over 40 minutes. The duration of study participation for each subject was up to 29 days including a screening period, a 3-day in-clinic visit, and 2 follow-up visits. 101 subjects were enrolled in approximately 20 study centers in the EU and the US.
The MOAA/S will were to determine if R(−)-ketamine causes the side effect of sedation and to what degree. Sedation was evaluated by the study staff using the MOAA/S. The observer recorded the subject's alertness pre-dose, every 20 minutes for first 2 hours post-dose, and at 4 and 6 hours after the start of the infusion.

[2] = tested on: subjects with TRD; test: Clinician-Administered Dissociative States Scale (CADSS)
Method: as §1
The CADSS was to assess the alertness or dissociative state of subjects administered R(−)-ketamine. The study staff evaluated the subject's degree of dissociation by administering the CADSS questionnaire pre-dose; at 40 minutes post-dose (at EoI); and at 2 and 4 hours post-dose.

[3] = 30 mg, 10 min post start of infusion, n 10
[4] = 30 mg, 20 min post start of infusion, n 33
[5] = 30 mg, 30 min post start of infusion, n 10
[6] = 30 mg, 40 min post start of infusion, n 33
[7] = 30 mg, 50 min post start of infusion, n 10
[8] = 30 mg, 1 hour 10 min post start of infusion, n 10
[9] = 30 mg, 1 hour 20 min post start of infusion, n 33
[10] = 30 mg, 1 hour 30 min post start of infusion, n 10
[11] = 30 mg, 1 hour 40 min post start of infusion, n 33
[12] = 30 mg, 1 hour 50 min post start of infusion, n 10
[13] = 30 mg, 1 hour post start of infusion, n 33
[14] = 30 mg, to 10 min post-start, n 10
[15] = 30 mg, to 20 min post-start, n 33
[16] = 30 mg, to 30 min post-start, n 10
[17] = 30 mg, to 40 min post-start, n 33
[18] = 30 mg, to 50 min post-start, n 10
[19] = 30 mg, to 1 hour 10 min post-start, n 10
[20] = 30 mg, to 1 hour 20 min post-start, n 33
[21] = 30 mg, to 1 hour 30 min post-start, n 10
[22] = 30 mg, to 1 hour 40 min post-start, n 33
[23] = 30 mg, to 1 hour 50 min post-start, n 10
[24] = 30 mg, to 1 hour post-start, n 33
[25] = 60 mg, 10 min post start of infusion, n 11
[26] = 60 mg, 20 min post start of infusion, n 35
[27] = 60 mg, 30 min post start of infusion, n 11
[28] = 60 mg, 40 min post start of infusion, n 35
[29] = 60 mg, 50 min post start of infusion, n 11
[30] = 60 mg, 1 hour 10 min post start of infusion, n 11
[31] = 60 mg, 1 hour 20 min post start of infusion, n 34
[32] = 60 mg, 1 hour 30 min post start of infusion, n 11
[33] = 60 mg, 1 hour 40 min post start of infusion, n 35
[34] = 60 mg, 1 hour 50 min post start of infusion, n 11
[35] = 60 mg, 1 hour post start of infusion, n 35
[36] = 60 mg, to 10 min post-start, n 11
[37] = 60 mg, to 20 min post-start, n 35
[38] = 60 mg, to 30 min post-start, n 11
[39] = 60 mg, to 40 min post-start, n 35
[40] = 60 mg, to 50 min post-start, n 11
[41] = 60 mg, to 1 hour 10 min post-start, n 11
[42] = 60 mg, to 1 hour 20 min post-start, n 34
[43] = 60 mg, to 1 hour 30 min post-start, n 11
[44] = 60 mg, to 1 hour 40 min post-start, n 35
[45] = 60 mg, to 1 hour 50 min post-start, n 11
[46] = 60 mg, to 1 hour post-start, n 35
[47] = 30 mg, 40 min post infusion start, n 33
[48] = 30 mg, 2 hours post infusion start, n 33
[49] = 30 mg, 4 hours post infusion start, n 33
[50] = 30 mg, 6 hours post infusion start, n 10
[51] = 30 mg, to 40 min post infusion start, n 33
[52] = 30 mg, to 2 hours post infusion start, n 33
[53] = 30 mg, to 4 hours post infusion start, n 33
[54] = 60 mg, 40 min post infusion start, n 35
[55] = 60 mg, 2 hours post infusion start, n 35
[56] = 60 mg, 4 hours post infusion start, n 34
[57] = 60 mg, 6 hours post infusion start, n 11
[58] = 60 mg, to 40 min post infusion start, n 35
[59] = 60 mg, to 2 hours post infusion start, n 35
[60] = 60 mg, to 4 hours post infusion start, n 34

Question: What does the source list for `CN[C@@]1(c2ccccc2Cl)CCCCC1=O` [PCN 101]?
Answer: MOAA/S score, Mean [1, 3]: 5.0; MOAA/S score, Median [1, 3]: 5.0; MOAA/S score, Mean [1, 4]: 4.9; MOAA/S score, Median [1, 4]: 5.0; MOAA/S score, Mean [1, 5]: 4.9; MOAA/S score, Median [1, 5]: 5.0; MOAA/S score, Mean [1, 6]: 4.8; MOAA/S score, Median [1, 6]: 5.0; MOAA/S score, Mean [1, 7]: 4.9; MOAA/S score, Median [1, 7]: 5.0; MOAA/S score, Mean [1, 8]: 5.0; MOAA/S score, Median [1, 8]: 5.0; MOAA/S score, Mean [1, 9]: 4.8; MOAA/S score, Median [1, 9]: 5.0; MOAA/S score, Mean [1, 10]: 5.0; MOAA/S score, Median [1, 10]: 5.0; MOAA/S score, Mean [1, 11]: 4.9; MOAA/S score, Median [1, 11]: 5.0; MOAA/S score, Mean [1, 12]: 5.0; MOAA/S score, Median [1, 12]: 5.0; MOAA/S score, Mean [1, 13]: 4.8; MOAA/S score, Median [1, 13]: 5.0; MOAA/S score, Mean ([1]; 30 mg, 2 hours, n 33): 5.0; MOAA/S score, Median ([1]; 30 mg, 2 hours, n 33): 5.0; MOAA/S score, Mean ([1]; 30 mg, 4 hours, n 31): 5.0; MOAA/S score, Median ([1]; 30 mg, 4 hours, n 31): 5.0; MOAA/S score, Mean ([1]; 30 mg, 6 hours, n 31): 5.0; MOAA/S score, Median ([1]; 30 mg, 6 hours, n 31): 5.0; MOAA/S change from baseline, Mean [1, 14]: 0.0; MOAA/S change from baseline, Median [1, 14]: 0.0; MOAA/S change from baseline, Mean [1, 15]: −0.1; MOAA/S change from baseline, Median [1, 15]: 0.0; MOAA/S change from baseline, Mean [1, 16]: −0.1; MOAA/S change from baseline, Median [1, 16]: 0.0; MOAA/S change from baseline, Mean [1, 17]: −0.2; MOAA/S change from baseline, Median [1, 17]: 0.0; MOAA/S change from baseline, Mean [1, 18]: −0.1; MOAA/S change from baseline, Median [1, 18]: 0.0; MOAA/S change from baseline, Mean [1, 19]: 0.0; MOAA/S change from baseline, Median [1, 19]: 0.0; MOAA/S change from baseline, Mean [1, 20]: −0.2; MOAA/S change from baseline, Median [1, 20]: 0.0; MOAA/S change from baseline, Mean [1, 21]: 0.0; MOAA/S change from baseline, Median [1, 21]: 0.0; MOAA/S change from baseline, Mean [1, 22]: −0.1; MOAA/S change from baseline, Median [1, 22]: 0.0; MOAA/S change from baseline, Mean [1, 23]: 0.0; MOAA/S change from baseline, Median [1, 23]: 0.0; MOAA/S change from baseline, Mean [1, 24]: −0.2; MOAA/S change from baseline, Median [1, 24]: 0.0; MOAA/S change from baseline, Mean ([1]; 30 mg, to 2 hours, n 33): −0.0; MOAA/S change from baseline, Median ([1]; 30 mg, to 2 hours, n 33): 0.0; MOAA/S change from baseline, Mean ([1]; 30 mg, to 4 hours, n 31): 0.0; MOAA/S change from baseline, Median ([1]; 30 mg, to 4 hours, n 31): 0.0; MOAA/S change from baseline, Mean ([1]; 30 mg, to 6 hours, n 31): 0.0; MOAA/S change from baseline, Median ([1]; 30 mg, to 6 hours, n 31): 0.0; MOAA/S score, Mean [1, 25]: 4.9; MOAA/S score, Median [1, 25]: 5.0; MOAA/S score, Mean [1, 26]: 4.8; MOAA/S score, Median [1, 26]: 5.0; MOAA/S score, Mean [1, 27]: 4.9; MOAA/S score, Median [1, 27]: 5.0; MOAA/S score, Mean [1, 28]: 4.8; MOAA/S score, Median [1, 28]: 5.0; MOAA/S score, Mean [1, 29]: 4.9; MOAA/S score, Median [1, 29]: 5.0; MOAA/S score, Mean [1, 30]: 5.0; MOAA/S score, Median [1, 30]: 5.0; MOAA/S score, Mean [1, 31]: 4.8; MOAA/S score, Median [1, 31]: 5.0; MOAA/S score, Mean [1, 32]: 5.0; MOAA/S score, Median [1, 32]: 5.0; MOAA/S score, Mean [1, 33]: 4.8; MOAA/S score, Median [1, 33]: 5.0; MOAA/S score, Mean [1, 34]: 5.0; MOAA/S score, Median [1, 34]: 5.0; MOAA/S score, Mean [1, 35]: 4.8; MOAA/S score, Median [1, 35]: 5.0; MOAA/S score, Mean ([1]; 60 mg, 2 hours, n 35): 4.8; MOAA/S score, Median ([1]; 60 mg, 2 hours, n 35): 5.0; MOAA/S score, Mean ([1]; 60 mg, 4 hours, n 32): 4.9; MOAA/S score, Median ([1]; 60 mg, 4 hours, n 32): 5.0; MOAA/S score, Mean ([1]; 60 mg, 6 hours, n 32): 5.0; MOAA/S score, Median ([1]; 60 mg, 6 hours, n 32): 5.0; MOAA/S change from baseline, Mean [1, 36]: −0.1; MOAA/S change from baseline, Median [1, 36]: 0.0; MOAA/S change from baseline, Mean [1, 37]: −0.2; MOAA/S change from baseline, Median [1, 37]: 0.0; MOAA/S change from baseline, Mean [1, 38]: −0.1; MOAA/S change from baseline, Median [1, 38]: 0.0; MOAA/S change from baseline, Mean [1, 39]: −0.2; MOAA/S change from baseline, Median [1, 39]: 0.0; MOAA/S change from baseline, Mean [1, 40]: −0.1; MOAA/S change from baseline, Median [1, 40]: 0.0; MOAA/S change from baseline, Mean [1, 41]: 0.0; MOAA/S change from baseline, Median [1, 41]: 0.0; MOAA/S change from baseline, Mean [1, 42]: −0.2; MOAA/S change from baseline, Median [1, 42]: 0.0; MOAA/S change from baseline, Mean [1, 43]: 0.0; MOAA/S change from baseline, Median [1, 43]: 0.0; MOAA/S change from baseline, Mean [1, 44]: −0.2; MOAA/S change from baseline, Median [1, 44]: 0.0; MOAA/S change from baseline, Mean [1, 45]: 0.0; MOAA/S change from baseline, Median [1, 45]: 0.0; MOAA/S change from baseline, Mean [1, 46]: −0.2; MOAA/S change from baseline, Median [1, 46]: 0.0; MOAA/S change from baseline, Mean ([1]; 60 mg, to 2 hours, n 35): −0.2; MOAA/S change from baseline, Median ([1]; 60 mg, to 2 hours, n 35): 0.0; MOAA/S change from baseline, Mean ([1]; 60 mg, to 4 hours, n 32): −0.1; MOAA/S change from baseline, Median ([1]; 60 mg, to 4 hours, n 32): 0.0; MOAA/S change from baseline, Mean ([1]; 60 mg, to 6 hours, n 32): 0.0; MOAA/S change from baseline, Median ([1]; 60 mg, to 6 hours, n 32): 0.0; CADSS score, Mean [2, 47]: 3.9; CADSS score, Median [2, 47]: 2.0; CADSS score, Mean [2, 48]: 1.1; CADSS score, Median [2, 48]: 0.0; CADSS score, Mean [2, 49]: 0.4; CADSS score, Median [2, 49]: 0.0; CADSS score, Mean [2, 50]: 0.0; CADSS score, Median [2, 50]: 0.0; CADSS change from baseline, Mean [2, 51]: 3.9; CADSS change from baseline, Median [2, 51]: 2.0; CADSS change from baseline, Mean [2, 52]: 1.1; CADSS change from baseline, Median [2, 52]: 0.0; CADSS change from baseline, Mean [2, 53]: 0.4; CADSS change from baseline, Median [2, 53]: 0.0; CADSS change from baseline, Mean ([2]; 30 mg, to 6 hours, n 10): −0.1; CADSS change from baseline, Median ([2]; 30 mg, to 6 hours, n 10): 0.0; CADSS score, Mean [2, 54]: 4.3; CADSS score, Median [2, 54]: 0.0; CADSS score, Mean [2, 55]: 1.1; CADSS score, Median [2, 55]: 0.0; CADSS score, Mean [2, 56]: 0.3; CADSS score, Median [2, 56]: 0.0; CADSS score, Mean [2, 57]: 0.0; CADSS score, Median [2, 57]: 0.0; CADSS change from baseline, Mean [2, 58]: 4.0; CADSS change from baseline, Median [2, 58]: 0.0; CADSS change from baseline, Mean [2, 59]: 0.8; CADSS change from baseline, Median [2, 59]: 0.0; CADSS change from baseline, Mean [2, 60]: −0.0; CADSS change from baseline, Median [2, 60]: 0.0; CADSS change from baseline, Mean ([2]; 60 mg, to 6 hours, n 11): 0.0; CADSS change from baseline, Median ([2]; 60 mg, to 6 hours, n 11): 0.0
